This note sets out measurements from paper PMC6978316, “Development of chimeric peptides to facilitate the neutralisation of lipopolysaccharides during bactericidal targeting of multidrug-resistant Escherichia coli” (Communications Biology, 2020).

Where a SMILES comes first, the peptide text is derived from it. Bridges are numbered along the chain shown (N, C = ends).

Data set [1] has as its system MDR E. coli CVCC195. The data set is described as follows: Sepsis mouse model, survival after lethal E. coli challenge. Format: in vivo, ICR mice. Particulars: mice, E. coli 5 × 10^8 CFU i.p.; 0.25 μmol per kg; 7 d; n = 5. Here is the method: The mouse survival was recorded for 7 d. The mice injected with LPS or saline were used as negative or blank controls, respectively.

Data set [2] deals with E. coli CVCC1515. The experiment in a line: MIC, microtiter broth dilution. To be noted: 37 °C, 16–18 h, three independent experiments. The format is cell-based, Escherichia coli. Here is the method:
(§1) The MIC values of A6, G6, the parental peptides (N6 and LBP14), LBPN6, scramble controls (N6CK, A6CK, and G6CK), and PMB were determined by the microtiter broth dilution method. The tested strains included Gram-negative bacteria, Gram-positive bacteria, and fungi and were cultured to the logarithmic growth phase, diluted to 10^5 CFU per ml, and added into 96-well plates (90 μl per well). Peptides or antibiotic were diluted with PBS by 2-fold dilution and were added to each well (10 μl per well). Polymyxin B (PMB) and PBS were used as the positive and negative control, respectively. […] All experiments were repeated three times.

Data set [3] relates to S. pullorum CVCC533. The data set is described as follows: MIC, microtiter broth dilution. Format: cell-based, Salmonella pullorum. To be noted: 37 °C, 16–18 h, three independent experiments. How it is done: as §1
Data set [4] has as its system Enterococcus faecalis CVCC3936. The data set is described as follows: MIC, microtiter broth dilution. To be noted: 37 °C, 16–18 h, three independent experiments. Format: cell-based. How it is done:
as §1

In data set [5] the test system is Pseudomonas aeruginosa CICC10419. The experiment in a line: MIC, microtiter broth dilution. The format is cell-based. Particulars: 37 °C, 16–18 h, three independent experiments. Here is the method: as §1
The test system of data set [6] is Staphylococcus aureus ATCC43300. The experiment in a line: MIC, microtiter broth dilution. The format is cell-based. Particulars: 37 °C, 16–18 h, three independent experiments. Here is the method: as §1
Data set [7] relates to Streptococcus suis CVCC606. The data set is described as follows: MIC, microtiter broth dilution. Particulars: 37 °C, 16–18 h, three independent experiments. The format is cell-based. How it is done:
as §1

Data set [8] deals with trypsin. Format: in vitro ADME.
Data set [9] can be described thus: in vitro. To be noted: for peptide remained intact in serum / remaining at 1 h / remaining at 2 h / remaining at 4 h: mice serum, 37 °C, RP-HPLC; for half-life / remaining at 1 h / remaining at 2 h / remaining at 4 h: mouse, serum. Here is the method: The thermal, pH and enzyme stability of A6 and G6 were evaluated against MDR E. coli CVCC195 using a previous method with minor revisions. The N6, A6, and G6 solutions were treated at different temperatures (20–100 °C) for 1 h, dissolved and incubated at different pH values (2–10) for 3 h, or incubated with trypsin or pepsin for 4 h. The inhibition zone diameters were measured after incubation at 37 °C for 18–24 h. The peptides were dissolved in H2O or mice serum at 37 °C to detect their serum stability and samples were removed at different time points to determine their residual activity by the inhibition zone or reverse-phase high-performance liquid chromatography (RP-HPLC) methods[62],[63].

Data set [10] in a line: Biodistribution of FITC-labeled peptides (in vivo fluorescence imaging). To be noted: nude mice, FITC-labeled peptide 5 mg per kg intraperitoneally. How it is done:
The nude mice were intraperitoneally injected with 5 mg per kg FITC-labeled A6, G6, and N6, respectively. Free FITC was used as a negative control.

In data set [11] the test system is S. aureus, Enterococcus faecalis, and Streptococcus suis. The format is cell-based. Here is the method: as §1
[12] abbreviates: peptide remaining in serum, Mean, 1 h, mean of n = 3 (source data Fig. 2f).
Where [13] appears, read: peptide remaining in serum, Mean, 2 h, mean of n = 3 (source data Fig. 2f).
The mark [14] stands for this setting: peptide remaining in serum, Mean, mean of n = 3 (source data Fig. 2f).

For the molecule polymyxin B [PMB], in data set [1], the survival rate is recorded as 100%.
For the molecule `CC(C)[C@@H]1NC(=O)CNC(=O)[C@H](CC(N)=O)NC(=O)[C@H](CCCNC(=N)N)NC(=O)[C@H](Cc2ccc(O)cc2)NC(=O)[C@H](C(C)C)NC(=O)[C@@H](NC(=O)[C@@H](NC(=O)[C@H](CC(N)=O)NC(=O)[C@H](Cc2c[nH]c3ccccc23)NC(=O)[C@H](C)NC(=O)[C@H](Cc2ccccc2)NC(=O)CNC(=O)[C@H](CO)NC(=O)CNC(=O)CNC(=O)CNC(=O)CNC(=O)[C@H](CCCCN)NC(=O)[C@H](Cc2ccccc2)NC(=O)[C@H](Cc2ccccc2)NC(=O)[C@H](CO)NC(=O)[C@H](C)NC(=O)[C@H](CCCNC(=N)N)NC(=O)[C@@H](NC(=O)[C@H](CCCCN)NC(=O)[C@H](Cc2c[nH]c3ccccc23)NC(=O)[C@H](CCCNC(=N)N)NC(=O)CNC(=O)[C@H](CCC(N)=O)NC(=O)[C@@H](NC(=O)[C@@H](N)CCCNC(=N)N)C(C)C)C(C)C)C(C)C)CSSC[C@@H](C(=O)N[C@@H](Cc2c[nH]cn2)C(=O)N[C@@H](CCCNC(=N)N)C(=O)N[C@@H](CCCNC(=N)N)C(=O)N[C@@H](C)C(=O)N[C@@H](CC(N)=O)C(=O)O)NC(=O)[C@H](C(C)C)NC(=O)[C@H](CCCNC(=N)N)NC1=O` [G6] (H-RVQGRWKVRASFFKGGGGSGFAWNVCVYRNGVRVCHRRAN-OH; disulfide 26-35), the MIC in [2], in data set [3], in data set [4], in data set [5], in data set [6] and in [7] was 16 μg per ml each time. Also, the “antibacterial activity after trypsin (inhibition zone diameter), Mean” value in [8] was 0. Also, the “peptide remained intact in serum” value is 68.5% in [9] (1 h) and 29.5% in data set [9] (2 h). This molecule came in with a half-life in [9] of less than 2 h. In [9] (setting [12]), the amount remaining at 1 h was 68.6%. For the same molecule, the amount remaining at 2 h in data set [9] (setting [13]) was 29.6%. In data set [9] (setting [14]), this molecule displayed a share remaining at 4 h of 11.2%. For the same molecule, the “time after injection at which the fluorescence disappeared / peptide was excreted” value in data set [10] came out at 48 h. The “MICs against S. aureus, Enterococcus faecalis, and Streptococcus suis” value in data set [11] is recorded as “greater than 3.52 μM”.
“H-RVQGRWKVRASFFKEAAAKEAAAKGFAWNVCVYRNGVRVCHRRAN-OH (disulfide 31-40) [A6]”: the “antibacterial activity after trypsin (inhibition zone diameter), Mean” value in [8] amounted to 0. The molecule also registered a half-life in [9] of less than 2 h. Further, the amount remaining at 2 h in [9] (peptide remained intact in serum, 2 h) was found to be 7%; in data set [9] (setting [13]), 7.18%. This molecule yielded a fraction remaining at 1 h in data set [9] (setting [12]) of 27%. In data set [9] (setting [14]), this molecule returned an amount remaining at 4 h of 4.77%. Further, in data set [10], the “time after injection at which the fluorescence disappeared / peptide was excreted” value amounted to 48 h. Moreover, in data set [11], the “MICs against S. aureus, Enterococcus faecalis, and Streptococcus suis” value is on record as “greater than 3.52 μM”.
